“Also recorded” adds a separate entry of the source.
Assays:
iGluSnFR-HEK cells = iGluSnFR-HEK cells cultured alone, multiphoton imaging; format: cell-based; settings: D-glucose 40 mM
Procedure: HEK 293/17 cells (ATCC CRL-11268) were maintained in DMEM (Gibco 11965) supplemented with 10% FBS (Corning 35-010-CV), Glutamax, and non-essential amino acids (both Gibco). Cells were transfected with 1 ug plasmid pCMV(MinDis) iGluSnFR (Addgene 41732) using 1 ul Lipofectamine 2000 in Optimem (Gibco) in 24-well plates.
The 5.2 Kb iGluSnFR (pCMV(MinDis).iGluSnFR was a gift from Loren Looger; Addgene plasmid #41732) was moved to the zeocin resistant backbone of Addgene #51694 (DRH296: FCK-Optopatch2 was a gift from Adam Cohen) as a NdeI+XhoI fragment. The resulting plasmid (pMEK8) was transfected into HEK 293/17 cells (ATCC CRL-11268) using 1 μl Lipofectamine 2000/ug DNA. Cells were maintained in DMEM (Gibco 11965) supplemented with 10% FBS (Corning 35-010-CV), Glutamax, non-essential amino acids (both Gibco) and 3 μl/ml zeocin ([…], Invitrogen).
(§1) CckCRE_tdTomato enteroendocrine cells were isolated as described above. Isolated cells were mixed with iGluSnFR-HEK cells at a ratio of 10:1, then plated on 1% Matrigel coated coverslips. Control iGluSnFR-HEK cells were plated alone. Cells were incubated for 12-18 hours before imaging. Coverslips were imaged using a multiphoton microscopy system (Bruker Ultima IV with a Chameleon Vision II tunable laser). Imaging frames were captured at 1.876 fps, using 920 nm light. Imaging series were analyzed using Fiji (ImageJ), and cell traces were plotted with Excel.

enteroendocrine cells = assay: iGluSnFR-HEK cell and CckCRE_tdTomato enteroendocrine cell co-culture, imaging of glutamate release; format: cell-based, mouse; settings: D-glucose 40 mM, n=3 cultures
Procedure: as §1

nodose neurons [1] = assay: Calcium imaging of dissociated Phox2bCRE_GCaMP6s nodose neurons; format: cell-based, mouse
Procedure: For neurons, Phox2bCRE_GCaMP6s (n=3) nodose neurons were dissociated and plated. Nodose ganglia were dissected and digested in Liberase (Roche, 5401054001). Neurons were washed and filtered through a 70 μm cell strainer, then plated on 12 mm coverslips and placed in an incubator overnight. Cells were imaged 1-2 days later. Coverslips were placed in the recording chamber of a Zeiss Examiner Z1 and imaged with a Hamamatsu camera (Orca-flash4.0; C11440) using the Zeiss ZEN software package. For enteroendocrine cells, CckCRE_tdTomato organoids with transduced with ΔG-rabies-GCaMP6s. Organoids were imaged using multi photon microscopy 3-4 days after transduction. Imaging buffer (in mM: 140 NaCl, 5 KCl, 2 CaCl2, 2 MgCl2, 10 HEPES) was continuously perfused over the coverslips. […] Images were analyzed with Fiji ([…]), and cell traces were plotted with Matlab.

vagus nerve = assay: Vagus nerve recording during intraluminal (duodenal) nutrient or CCK perfusion; format: in vivo, mouse; settings: D-glucose 150 mM perfused intraluminally, wild-type mice
Procedure: Wild-type control (n=5-9), CckCRE_ChR2-tdTomato (n=6), CckCRE_Halorhodopsin-YFP (n=5), and Vglut1CRE_ChR2-YFP (n=6) mice were used for vagal recordings. Mice were anesthetized with 3 mg/g-mouse urethane 1 hour before surgery then with 0.5-1% isoflurane. A section of neck skin was removed between the jaw and clavicle. The thyroid was reflected bilaterally, and the carotid bundle was exposed using coarse dissection. The carotid nerve was separated from the vagus nerve using a curved blunt probe. Two platinum iridium wires (0.001″ diameter, PTFE coated, 10% Ir 90% Pt; Medwire by Sigmund Cohn Corp) were looped around the vagus nerve for recording. Mineral oil was used to insulate the vagus nerve from surrounding tissue. The small intestine was exposed by removing a section of skin and peritoneum. A 20 gauge gavage needle was surgically inserted through the stomach wall and into the duodenum. The gavage needle was sutured in place beyond the pyloric sphincter. Saline and stimulant tubes were connected to the gavage needle. For optogenetic experiments, a fiber optic cable (FT020, ThorLabs) was threaded through the gavage needle into the lumen of the duodenum. A perfusion exit incision was made 10 cm distal to the pyloric sphincter. During each recording, PBS was constantly perfused through the duodenum using a peristaltic pump (Cole-Parmer) at the lowest setting for a flow rate of ˜400 uL PBS per minute. Stimulation conditions were applied after recording 2 minutes of baseline activity. During whole nutrient stimulation conditions, PBS perfusion was continuous and 200 μL of ENSURE® was perfused through the second tube for 1 minute using a syringe pump. […] During CCK stimulation conditions, PBS perfusion was continuous, and 200 μL of 2.9 μM CCK octapeptide-sulfated (BaChem) was perfused through the second tube for 1 minute using a syringe pump (Fusion 200, Chemyx) for a final concentration of ˜870 nM CCK in PBS (10 μg/kg dose). […] Final stimulant concentrations were determined using the ratio of dilution and confirmed by osmolarity testing (Model 3320 Osmometer, Advanced Instruments Inc.). During 473 nm laser stimulation conditions, PBS perfusion was continuous, and the laser was pulsed for 1 minute at 40 Hz, 4 volts peak voltage, 20% duty cycle (473 nm, 80 mW laser, RGBlase).
Extracellular voltage was recorded from a pair of platinum iridium wires as described above. A differential amplifier and bandpass filter (1000× gain, 300 Hz-5 kHz bandpass filter; A-M Systems LLC) was used and the signal was processed using a data acquisition board and software (20 kHz sampling rate; Signal Express, National Instruments Corp). The raw data was analyzed using a spike sorting algorithm (MATLAB by MathWorks). Spikes were detected using simple threshold detection based on RMS noise. The firing rate was calculated using a Gaussian kernel smoothing algorithm (200-ms time scale).
Stimulation response was quantified as the maximum firing rate after stimulation (stimulant conditions) or during recording (baseline). Each trial serves as its own control by normalizing the maximum firing rate to the average baseline firing rate (defined as the first two minutes of recording, prior to stimulation onset). Mice were excluded from analysis if no sucrose response was present throughout recording. Maximum firing rate was analyzed across genotype, stimulation condition, and their interaction term by ANOVA, followed by HSD post hoc testing (iMP by SAS Institute).

nodose neurons [2] = assay: Patch-clamp electrophysiology of nodose neurons cultured alone; format: cell-based, mouse; settings: 10-20 mM D-glucose
[3] = 20 mM D-glucose, mice=3, cells=246

O=C[C@H](O)[C@@H](O)[C@H](O)[C@H](O)CO [D-glucose]
fluorescence response of iGluSnFR-HEK cells cultured alone (iGluSnFR-HEK cells): did not respond
fluorescence response of iGluSnFR-HEK cells cultured alone (iGluSnFR-HEK cells; listed as Dglucose): not
fluorescence response of iGluSnFR-HEK cells in close proximity to enteroendocrine cells (glutamate release) (enteroendocrine cells): rapidly fluoresced green; also recorded: elicits a response
percent of Fast Blue positive nodose neurons (innervating small intestine) that did not respond (nodose neurons [1]; 20 mM D-glucose, mice=2, cells=73): 100%
percent of nodose neurons that did not respond (nodose neurons [1]; [3]): 97.3±1.9%
percent of nodose neurons that responded (nodose neurons [1]; [3]): 2.7±1.9%
calcium transients in dissociated nodose ganglia neurons (nodose neurons [1]; D-glucose (10 mM) as printed, n=246 cells from 3 mice): did not elicit calcium transients
calcium response in Fast Blue labeled nodose neurons (nodose neurons [1]; D-glucose (20 mM)): no calcium response was observed
vagal firing rate (vagus nerve): had the same effect; also recorded: stimulate
excitatory currents / action potentials in nodose neurons cultured alone (nodose neurons [2]): neither excitatory currents nor action potentials were observed
excitatory currents / action potentials in nodose neurons cultured alone (nodose neurons [2]; listed as glucose): did not activate
